Test results from patent publication US9073967B2, “High salt-resistance antibacterial peptide and method for producing the same” (NATIONAL TSING HUA UNIVERSITY, priority 2011, dated 2015).
Where a SMILES comes first, the peptide text is derived from it.

What was measured:
[1] = tested on: S. aureus ATCC 19636; assay: Antibacterial ability in different MgCl2 concentration; format: cell-based
[2] = tested on: P. arugenosa ATCC 9027; assay: Antibacterial ability in different salt (NaCl) concentration, LYM medium
Description: (§4) All bacteria strains of above microbes were cultured in LYM medium. […] The NaCl concentrations in LYM were divided into four groups of 50 mM, 100 mM, 200 mM, 300 mM and the microbes were cultured in the four group of LYM and diluted to a 10^4 CFU/ml bacterial solution. Then added 100 μl of the bacterial solution into 96-well culture dish and added different concentration of antibacterial peptides P113, Phe-P113, Nal-P113 or Bip-P113 to evaluate the antibacterial ability in 50 mM, 100 mM, 200 mM, 300 mM concentration of NaCl. (Note: In addition to NaCl, the LYM medium also contains 5.4 mM KCl, 5.6 mM Na2HPO4, 0.5 mM MgSO4, and 1.0 mM sodium citrate. Besides, 0.4 mg of ZnCl2, 2.0 mg of FeCl3.6H2O, 0.1 mg of CuSO4.5H2O, 0.1 mg of MnSO4.H2O, 0.1 mg of Na2B4O7.10H2O, 700 mg of amino acid mixtures without tryptophan (Clontech), and 20 mg of L-Tryptophan were added per liter of medium. Then added moderate amount of glucose, amino acid, and vitamins mixture from the RPM1-1640 Select-Amine Kit)

[3] = tested on: E. coli ATCC 25922; assay: Antibacterial ability in different MgCl2 concentration; format: cell-based
[4] = tested on: S. aureus ATCC 25923; assay: Antibacterial ability in different salt (NaCl) concentration, LYM medium
Description: as §4

[5] = tested on: S. aureus ATCC 29213; assay: Antibacterial ability in different MgCl2 concentration; format: cell-based
[6] = tested on: E. coli ATCC 25922; assay: Antibacterial ability in different salt (NaCl) concentration, LYM medium
Description: as §4

[7] = tested on: P. arugenosa ATCC 27853; assay: as above
Description: as §4

[8] = tested on: S. aureus ATCC 19636; assay: as above
Description: as §4

[9] = tested on: P. arugenosa ATCC 9027; assay: Antibacterial ability in different MgCl2 concentration; format: cell-based
[10] = tested on: P. arugenosa ATCC 27853; assay: as above; format: cell-based
[11] = tested on: Eschericha coli strains ATCC 25922; assay: Antibacterial activity assay, NCCLS microdilution MIC in MHB; format: cell-based
Text: (§1) For testing the antibacterial ability of Phe-P113, Nal-P113 and Bip-P113 in different salt concentration, we use Antibacterial activity assay to perform the test. Three bacteria strains are used: Eschericha coli strains (ATCC 25922), Staphylococcus aureus strains (ATCC 25923, 29213 and 19636, methicillin-resistant) and Pseudomonas aeruginosa strains (ATCC 27853 and 9027, ampicillin-resistant).
(§2) The microdilution method of National Committee for Clinical Laboratory Standards (NCCLS) is used to evaluate ‘The minimal inhibition concentration (MIC)’. The minimum concentration that can inhibit 90% or more microbes is the ‘minimal inhibition concentration’.
(§3) In the microdilution method, the 1 μl peptide solution (The concentration is between the range of 5000 μg/ml to 78.1 μg/ml) and the 99 μl inoculums (5×10^5 CFU/ml) is mixed incubated in 96-well culture dish coated with polyethylene under 37° C. for 16 hr. Then evaluated the turbidity in O.D.600 by ELISA plate reader (Thermo Max, Molecular Devices, Sunnyvale, Calif.). Take the Muller-Hinton Broth (MHB) and inoculums suspension with adding peptides as negative and positive control group relatively. The result of MIC is the minimum concentration of peptides that can inhibit the bacteria growth (equal to or more than 90%).

[12] = tested on: Pseudomonas aeruginosa strains ATTC 9027; assay: as above; format: cell-based
Text: as §1, §2, §3

[13] = tested on: Staphylococcus aureus strains ATCC 25923; assay: as above; format: cell-based
Text: as §1, §2, §3

[14] = tested on: Pseudomonas aeruginosa strains ATCC 27853; assay: as above; format: cell-based
Text: as §1, §2, §3

[15] = tested on: Staphylococcus aureus strains ATCC 29213; assay: as above; format: cell-based
Text: as §1, §2, §3

[16] = tested on: Staphylococcus aureus strains ATCC 19636; assay: as above; format: cell-based
Text: as §1, §2, §3

[17] = tested on: S. aureus ATCC 25923; assay: Antibacterial ability in different MgCl2 concentration; format: cell-based
[18] = tested on: S. aureus ATCC 29213; assay: Antibacterial ability in different salt (NaCl) concentration, LYM medium
Description: as §4

C[C@H](N)C(=O)N[C@@H](CCCCN)C(=O)N[C@@H](CCCNC(=N)N)C(=O)N[C@@H](Cc1c[nH]cn1)C(=O)N[C@@H](Cc1c[nH]cn1)C(=O)NCC(=O)N[C@@H](Cc1ccc(O)cc1)C(=O)N[C@@H](CCCCN)C(=O)N[C@@H](CCCNC(=N)N)C(=O)N[C@@H](CCCCN)C(=O)N[C@@H](Cc1ccccc1)C(=O)N[C@@H](Cc1c[nH]cn1)C(N)=O [P113, AKRHHGYKRKFH-NH2 (SEQ ID NO: 1)] (H-AKRHHGYKRKFH-NH2; N-terminus assumed)
antibacterial ability (MIC) ([1]; Control group): 50 µg/mL | antibacterial ability (MIC) ([1]; MgCl2 0.5 mM): > 50 µg/mL | antibacterial ability (MIC) ([1]; MgCl2 1.5 mM): > 50 µg/mL | antibacterial ability (MIC) ([1]; MgCl2 2.5 mM): > 50 µg/mL | antibacterial ability (MIC) ([2]; NaCl 50 mM): 50 | antibacterial ability (MIC) ([2]; NaCl 100 mM): 50 | antibacterial ability (MIC) ([2]; NaCl 200 mM): >50 | antibacterial ability (MIC) ([2]; NaCl 300 mM): >50 | antibacterial ability (MIC) ([3]; Control group): 12.5 µg/mL | antibacterial ability (MIC) ([3]; MgCl2 0.5 mM): 12.5 µg/mL | antibacterial ability (MIC) ([3]; MgCl2 1.5 mM): 25 µg/mL | antibacterial ability (MIC) ([3]; MgCl2 2.5 mM): 25 µg/mL | antibacterial ability (MIC) ([4]; NaCl 50 mM): 50 | antibacterial ability (MIC) ([4]; NaCl 100 mM): 50 | antibacterial ability (MIC) ([4]; NaCl 200 mM): >50 | antibacterial ability (MIC) ([4]; NaCl 300 mM): >50 | antibacterial ability (MIC) ([5]; Control group): 12.5 µg/mL | antibacterial ability (MIC) ([5]; MgCl2 0.5 mM): 12.5 µg/mL | antibacterial ability (MIC) ([5]; MgCl2 1.5 mM): 25 µg/mL | antibacterial ability (MIC) ([5]; MgCl2 2.5 mM): 25 µg/mL | antibacterial ability (MIC) ([6]; NaCl 50 mM): 50 | antibacterial ability (MIC) ([6]; NaCl 100 mM): 50 | antibacterial ability (MIC) ([6]; NaCl 200 mM): >50 | antibacterial ability (MIC) ([6]; NaCl 300 mM): >50 | antibacterial ability (MIC) ([7]; NaCl 50 mM): 50 | antibacterial ability (MIC) ([7]; NaCl 100 mM): 50 | antibacterial ability (MIC) ([7]; NaCl 200 mM): >50 | antibacterial ability (MIC) ([7]; NaCl 300 mM): >50 | antibacterial ability (MIC) ([8]; NaCl 50 mM): 50 | antibacterial ability (MIC) ([8]; NaCl 100 mM): 50 | antibacterial ability (MIC) ([8]; NaCl 200 mM): >50 | antibacterial ability (MIC) ([8]; NaCl 300 mM): >50 | antibacterial ability (MIC) ([9]; Control group): 12.5 µg/mL | antibacterial ability (MIC) ([9]; MgCl2 0.5 mM): > 50 µg/mL | antibacterial ability (MIC) ([9]; MgCl2 1.5 mM): > 50 µg/mL | antibacterial ability (MIC) ([9]; MgCl2 2.5 mM): > 50 µg/mL | antibacterial ability (MIC) ([10]; Control group): 25 µg/mL | antibacterial ability (MIC) ([10]; MgCl2 0.5 mM): 50 µg/mL | antibacterial ability (MIC) ([10]; MgCl2 1.5 mM): 50 µg/mL | antibacterial ability (MIC) ([10]; MgCl2 2.5 mM): 50 µg/mL | minimal inhibition concentration (MIC) [11]: >50 | minimal inhibition concentration (MIC) [12]: >50 | minimal inhibition concentration (MIC) [13]: >50 | minimal inhibition concentration (MIC) [14]: >50 | minimal inhibition concentration (MIC) [15]: >50 | minimal inhibition concentration (MIC) [16]: >50 | antibacterial ability (MIC) ([17]; Control group): 12.5 µg/mL | antibacterial ability (MIC) ([17]; MgCl2 0.5 mM): 50 µg/mL | antibacterial ability (MIC) ([17]; MgCl2 1.5 mM): 50 µg/mL | antibacterial ability (MIC) ([17]; MgCl2 2.5 mM): 50 µg/mL | antibacterial ability (MIC) ([18]; NaCl 50 mM): 50 | antibacterial ability (MIC) ([18]; NaCl 100 mM): 50 | antibacterial ability (MIC) ([18]; NaCl 200 mM): >50 | antibacterial ability (MIC) ([18]; NaCl 300 mM): >50
